From patent US20260207713A1, “Drug Combination Kit for Controlling Blood Sugar” (Ningbo Y Biotechology lnc., priority 2023, published 2026)

How the values were obtained:
diabetic rat models = experiment: Type II diabetes rat model (high-sugar, high-fat diet plus STZ); fasting blood sugar and glycated hemoglobin after 3 months of drug intervention; type: in vivo, SPD rats
Experimental: A study in Aging (Albany NY). 2021 Mar. […] The inventor opted for 12-month-old male SPD rats (weighing between 540 grams and 560 grams) for the experiment. These rats were fed a high-sugar, high-fat diet (10% lard, 2.5% cholesterol, 1.0% pig bile salt, 20% sucrose, and 66.5% conventional feed). […] The diet continued for an additional 12 weeks. Finally, rats with a fasting blood sugar level exceeding 10 mmol/L were selected, and their fasting blood sugar levels were measured for 3 consecutive times every 3 days. Rats maintaining stable fasting blood sugar levels above 10 mmol/L were chosen. Each group comprised 5 animals, and a standard diet (18.0% fat, 24.0% protein, and 58.0% carbohydrates) was administered during the drug intervention period. Given that the lifespan of glycated hemoglobin is approximately 3 months, the duration of drug intervention was established at 3 months to ensure precise measurement of post-intervention glycated hemoglobin.
These ingredients are mixed evenly with unsaturated fish oil, and then encapsulated in ultra-long type No. 9 enteric-coated capsules. […] The ketoester was diluted with flavored water to achieve a 50% concentration, while the control solution consisted of flavored water only. The method of gastric gavage was employed.
After three months of medication, blood was drawn from the tail to measure fasting blood sugar and glycated hemoglobin, with results expressed as the mean.
Feed 50% ketoester solution three times daily: at 8 am, 12 pm, and 5 pm. The total daily intake was selected as 3 g/kg/day or 5 g/kg/day, as referenced in BMC Anesthesiol. 2023; 23:p43. […] The subsequent experiment utilized 50% ketoester solution at 3 g/day/kg.

[1] = tested on: patients with type II diabetes; details: type II diabetes patients on chemical hypoglycemic drugs, no insulin injection, 28 consecutive days; cited from earlier work
[2] = cited from earlier work
[3] = 20 mg/kg once a day in the morning, diabetic rats
[4] = 50% ketoester solution 3 g/kg/day, three times daily by gavage, diabetic rats
[5] = 50% ketoester solution 5 g/kg/day, three times daily by gavage, diabetic rats

Q: For `Cc1ccc([C@@H]2O[C@H](CO)[C@@H](O)[C@H](O)[C@H]2O)cc1Cc1ccc(-c2ccc(F)cc2)s1` [Canagliflozin, canagliflozin, reference compound], which “Fasting blood sugar after three months” value (diabetic rat models; [3]) is on record?
A: 6.38 ± 0.41 mmol/L

Q: What about the “Glycated hemoglobin measurement after three months” value (diabetic rat models; [3]) of the same compound?
A: 5.63 +/− 0.42%

Q: What does the source list for `C[C@@H](O)CCOC(=O)C[C@@H](C)O` [ketoester, (R)-3-hydroxybutyrate-(R)-1,3-butanediol ester]?
A: Reduction in fructosamine [1]: 13.4%; Reduction in glycated hemoglobin [1]: 8.3%; Duration of ketogenic effect ([2]; oral solution): 4 to 6 h; Ketogenic effect (level reached) ([2]; oral solution): approximately 3 mM; Difference in effects on fasting blood sugar and glycated hemoglobin between dosages (diabetic rat models; 3 g/kg/day versus 5 g/kg/day): no significant difference; Fasting blood sugar measurement after three months (diabetic rat models; [4]): 7.15 ± 0.51 mmol/L; Glycated hemoglobin measurement after three months (diabetic rat models; [4]): 6.82 +/− 0.34%; Fasting blood sugar measurement after three months (diabetic rat models; [5]): 6.90 ± 0.41 mmol/L; Glycated hemoglobin measurement after three months (diabetic rat models; [5]): 6.75 +/− 0.42%

Q: With `CC(O)CC(=O)[O-].[Na+]` (stereo not drawn) [sodium 3-hydroxybutyrate, reference compound] as the compound, how does the Ketogenic effects ([2]; early exogenous ketone) read?
A: poor ketogenic effects
